# According to publication PMC5554220, “A Novel Aldosterone Antagonist Limits Renal Injury in 5/6 Nephrectomy” (Scientific Reports, 2017):
# Biological target: T1, human mineralocorticoid receptor (hMR) (Homo sapiens, UniProt P08235)
# T1 construct: made in house; host or cells: Sf9 insect cells (baculovirus)
# T1 sequence (P08235 1-984): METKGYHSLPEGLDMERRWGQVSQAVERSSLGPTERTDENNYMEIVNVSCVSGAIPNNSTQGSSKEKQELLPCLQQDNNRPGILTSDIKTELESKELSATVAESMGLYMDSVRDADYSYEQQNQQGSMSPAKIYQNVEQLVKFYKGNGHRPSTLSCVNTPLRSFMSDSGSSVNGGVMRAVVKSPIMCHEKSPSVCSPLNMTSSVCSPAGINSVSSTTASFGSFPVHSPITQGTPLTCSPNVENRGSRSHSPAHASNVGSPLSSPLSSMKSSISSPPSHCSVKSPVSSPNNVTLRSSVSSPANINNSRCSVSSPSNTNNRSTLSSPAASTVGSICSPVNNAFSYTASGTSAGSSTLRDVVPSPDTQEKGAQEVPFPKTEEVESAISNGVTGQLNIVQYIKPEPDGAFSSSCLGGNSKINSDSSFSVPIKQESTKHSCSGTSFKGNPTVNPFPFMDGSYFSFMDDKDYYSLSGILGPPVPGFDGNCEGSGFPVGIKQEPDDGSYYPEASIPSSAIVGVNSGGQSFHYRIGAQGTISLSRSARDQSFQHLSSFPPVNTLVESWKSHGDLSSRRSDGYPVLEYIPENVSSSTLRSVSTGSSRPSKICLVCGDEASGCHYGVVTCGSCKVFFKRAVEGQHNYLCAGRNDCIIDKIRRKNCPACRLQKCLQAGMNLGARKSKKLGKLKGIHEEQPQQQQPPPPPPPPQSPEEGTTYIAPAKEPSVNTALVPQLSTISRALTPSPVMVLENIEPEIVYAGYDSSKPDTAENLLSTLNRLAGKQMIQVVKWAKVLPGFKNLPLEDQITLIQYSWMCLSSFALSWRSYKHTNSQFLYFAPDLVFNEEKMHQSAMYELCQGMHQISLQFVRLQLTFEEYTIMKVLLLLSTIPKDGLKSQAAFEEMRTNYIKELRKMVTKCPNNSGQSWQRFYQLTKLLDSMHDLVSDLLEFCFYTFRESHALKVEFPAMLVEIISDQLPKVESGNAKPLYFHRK
# Test: Radioligand binding, [3H]aldosterone, hMR Sf9 lysate, vacuum filtration
# Procedure: Full-length human mineralocorticoid receptor (hMR) to be used in radioligand binding was isolated from a human kidney cDNA library (Clontech, Palo Alto, CA). […] The hMR, hPR, and hAR cDNAs were subcloned in the eukaryotic expression vector pcDNA3. Methods for the expression of functionally active hMR, hAR and hPR utilizing the baculovirus expression system were described previously, [31].
# Affinity of ligands to the soluble receptor was determined using vacuum filtration methods, preparing soluble receptors in 96-well Falcon polystyrene plates (BD Biosciences, Bedford, MA) in a total volume of 250 μl. […] Binding studies for ligands for hPR and hAR were determined using [1,2,6,7-3H(N)] […] Specific binding of 3H-progesterone for hPR and 3H-mibolerone for hAR was determined in the presence and absence of 1 μM mifepristone. Inhibition constants (Ki), were determined either from the Cheng-Prusoff equation[32], or directly using non-linear regression curve fitting to a three-parameter one-site competitive equation. […] Protein was measured using colorimetric detection and quantification of bicinchoninic acid (BCA Protein Assay, Pierce, Rockford, IL). […] Concentration response curves were analyzed statistically using a four-parameter logistic equation (Hill equation for sigmoid curves). […]
structure (smiles),measurement,setting,value
O=c1[nH]c2ccc(/C=C3\c4ccc(F)cc4COc4cc(F)ccc43)cc2[nH]1 [Ly],Ki,"hMR expressed in Sf9, [3H]aldosterone 0.5 nM, read-out: Mean Ki ± SEM hMR",1.6 ± 0.3 nM
same,Eple/Ly Ki ratio,"hMR, 124/1.6",77.5
